# Assay results: publication PMC4826283 (Journal of nuclear medicine : official publication, Society …, 2014)
# System: kappa opioid receptor (KOR)
# Experiment: in vivo PET receptor occupancy
# Type: cell-based, Macaca mulatta
# Settings: rhesus monkey, brain
smiles,measurement,value
Cc1cc(C)cc([C@@H]2CCCN2Cc2ccc(Oc3ccc(C(N)=O)cc3F)cc2)c1 [LY2456302],% occupancy at 0.3 mg/kg,93 % occupancy at 0.3 mg/kg
